Results reported in patent US5843916A, “Cyclic amp analogues, individually and in pairs, to inhibit neoplastic cell growth” (priority 1994, dated 1998).
Entries after “also recorded” stand apart in the source; their conditions may differ. Read-outs that look alike come from different tables or passages of the source.

Columns and labels:
[1] = tested on: breast (MCF-7) and colon (LS-174T) cancer cell lines; assay: Growth inhibition of breast and colon cancer cells (Table 1); type: cell-based, human; conditions: for inhibition at 50 µM: Homo sapiens
Outline: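 MCF-7 and LS-174T cells seeded day −1, treated on day 0 and day 2; duplicate Coulter counts on days 3 and 4 after gentle trypsinization. Percent growth inhibition versus untreated controls from dose-response curves, averaged over ≥3 experiments.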

[2] = tested on: breast and colon cancer lines (MCF-7, T-47D, ZR-75-1, MCF-7ras, MDA-MB-231, BT-20, HBL-100, LS-174T, WiDr, HT-29); assay: Growth inhibition of breast and colon cancer lines (FIG. 1); type: cell-based, human
[3] = tested on: DMBA-induced mammary carcinomas; assay: Growth of DMBA-induced mammary carcinomas, pellet (Table 4); type: in vivo, rat; conditions: for tumor growth: 10 mg pellet for 8-Cl-cAMP, implanted twice every two weeks
Method: Treated tumors regress almost 100% within 30 days.
^b 8Cl-cAMP (20 mg pellet per rat, consisting of 10 mg 8Cl-cAMP and […]
mg cholesterol), was implanted on day 0 and day 14.

[4] = tested on: DMBA-1 mammary carcinoma; assay: Growth of transplantable mammary carcinoma, pellet (Table 5); type: in vivo, rat; conditions: for Change in mean tumor volume (cm^3) / Change in mean tumor volume (%): pellet with 10 mg analogue, day 7; for Change in mean tumor volume (%): none = 100
Method: (§1) Based on the findings with the […] leukemia model, the efficacy of the 8-Cl-cAMP-Na+infusions were evaluated in advanced-stage human tumor xenograft models. Tumor fragments of approximately 14 mg were implanted subcutaneously in athymic CD-1 female mice and seven day intraperitoneal infusions of the cyclic nucleotide were initiated three weeks later when mean tumor weights had reached 300-400 mg. Tumor measurements were recorded on the initial day of treatment (staging day) and one day after treatment was completed (staging day +7), and were used to calculate changes in tumor weights.
DMBA-1, a variant of primary hormonedependent DMBA tumor,
hormoneindependent and transplantable.
(§2) 8Cl-cAMP and DBcAMP were given as a 20mg pellet consisting of 10 mg of […]

[5] = tested on: NMU-2 mammary carcinoma; assay: Growth of metastatic mammary carcinoma, pellet (Table 5); type: in vivo, rat; conditions: for Change in mean tumor volume (cm^3) / Change in mean tumor volume (%): pellet with 10 mg analogue, day 7; for Change in mean tumor volume (%): none = 100
Method: as §1
NMU2, a variant of primary hormoneresponsive NMU tumor,
hormoneindependent, transplantable, and metastatic.
as §2

[6] = tested on: HL-60; assay: Growth inhibition of leukemic cells (Table 12); type: cell-based; conditions: Homo sapiens
[7] = tested on: Molt-4; assay: Growth inhibition of leukemic cells (Table 12); type: cell-based, human; conditions: for IC50: Homo sapiens, MOLT-4
[8] = tested on: K-562; assay: Growth inhibition of leukemic cells (Table 12); type: cell-based; conditions: Homo sapiens, K562
[9] = tested on: myc-K562; assay: Growth inhibition of leukemic cells (Table 12); type: cell-based; conditions: Homo sapiens
[10] = tested on: RI cAMP receptor protein, Molt-4 leukemic cells; assay: Photoaffinity labelling of RI cAMP receptor protein (FIG. 9A); type: cell-based, human; conditions: three days; 8-Cl-cAMP 5 μM, DBcAMP 1 mM, 8-Cl-adenosine 5 μM
[11] = tested on: c-myc protein, Molt-4 leukemic cells; assay: Western blotting of c-myc protein (FIG. 9B); type: cell-based, human; conditions: three days; 8-Cl-cAMP 5 μM, DBcAMP 1 mM, 8-Cl-adenosine 5 μM
Method: The cells were grown in suspension culture in RPMI 1640 medium supplemented with 10% fetal bovine serum, penicillin (50 U/ml), streptomycin (500 μg/mL), 10 mM HEPES buffer, and extra glutamine. […] Surface antigen analysis of HL-60 cells was performed by flow cytometry using a panel of monoclonal antibodies reactive with either myeloid cells or monocytic cells. Terminal deoxynucleotidyl transferase (TdT) was assayed by an immunoperoxidase method using a TdT fluorescence kit. Western blotting of c-myc protein was performed using c-myc antibody 15206D11 (Scripps Clinic and Research Foundation, LaJolla, Calif.).
M, marker proteins of known molecular weight. […] The resulting supernatants were used as cell lysates. […] ND=nondetectable.

[12] = tested on: RI and RII cAMP receptor proteins, breast (MDA-MB-231) and colon (LS-174T) cancer cells; assay: cAMP receptor protein levels, breast and colon cancer cells (FIG. 6); type: cell-based, human; conditions: for RI and RII receptor levels: three days, FIG. 6
Method: Photoactivated incorporation of 8-N3 [^32 P] was performed as described below.
M is marker proteins of known molecular weight.
The incubations were carried out at 23° C. for 60 minutes in 96-well immunoplates. […] The gels were fixed, dried, and exposed to X-ray films overnight.

[13] = tested on: MCF-7; assay: Growth of MCF-7 cells (Tables 3, 11); type: cell-based; conditions: Homo sapiens, MCF7, 72 h
Method: All breast cancer cell lines were grown in IMEM supplemented with 10% fetal bovine serum, HEPES 20 mM, penicillin-streptomycin, and extra glutamine. Colon carcinoma cell lines were grown in EMEM supplemented with 10% FBS, EMEM, NEAA, HEPES 20 mM, extra glutamine, and penicillin-streptomycin. The cells were grown at 37° C. in humidified incubators in an atmosphere of 5% CO2.
For cell growth experiments, 2-3×10^5 cells/60 mm dish were seeded, and 24 hours later (Day 0), the medium was removed, and fresh medium and the additives were added then and every 48 hours thereafter. The compounds of the present invention were added using 100X concentrated stock solutions. At desired times, cell counts in duplicate were performed on a Coulter counter after harvesting the cells with gentle trypsinization.

[14] = 72 h, 50 μM, day 3, average (range), read-out: % Growth Inhibition, Day 3
[15] = 96 h, 50 μM, day 4, average (range), read-out: % Growth Inhibition, Day 4
[16] = Table 11, 8-Cl-cAMP 10 μM, 8-Cl-adenosine 5 μM, DBcAMP 500 μM, control 100

| Structure (SMILES) | inhibition at 50 µM [1, 14] [%] | inhibition at 50 µM [1, 15] [%] | tumor growth [3] | Change in mean tumor volume (cm^3) [4] [cm^3] | Change in mean tumor volume (%) [4] [%] | Change in mean tumor volume (cm^3) [5] [cm^3] | Change in mean tumor volume (%) [5] [%] | IC50 [6] [µM] | IC50 [8] [µM] | IC50 [9] [µM] | RI receptor protein level [10] | c-myc protein level [11] | RI and RII receptor levels [12] | other results |
| --- | --- | --- | --- | --- | --- | --- | --- | --- | --- | --- | --- | --- | --- | --- |
| Nc1ncnc2c1nc(Cl)n2[C@@H]1O[C@@H]2COP(=O)(O)O[C@H]2[C@H]1O [8-Cl-cAMP, 8-chloro-adenosine 3': 5'-monophosphate] | 67 | 75 | completely stopped tumor growth | 1.60 | 61 | 1.10 | 51 | 10 | 20 | 20 | markedly decreased | marked reduction of c-myc protein level | the cAMP receptor protein with a molecular weight of 52,000 increased appreciably with concomitant decrease of the 48,000 RI receptor protein | inhibition at 50 µM ([1]; 50 micromolar, read-out: growth inhibition): 40 to 75%; growth inhibition of cancer lines ([2]; densitometry text): 45-70%; tumor regression ([3]; 10 mg pellet, within 30 days): ~100%; Mean % of change in tumor volume ([3]; pellet day 0 and day 14, day 30, mean ± S.E.): -96 ± 20%; inhibition of tumor growth ([4]; pellet, seven days): 40-50%; inhibition of tumor growth ([5]; pellet, seven days): 40-50%; IC50 ([7]; read-out: Inhibition of Growth IC50, Molt-4): 5 µM; decrease in the RI level ([12]; densitometric tracings): 70-80%; increase in the ratio of RII to RI ([12]; densitometric tracings): two- to three-fold increase; inhibition at 10 µM [13]: 57%; activity at 10 µM ([13]; 10 μM, 3 days, control 100 (Table 3)): 40%; activity at 10 µM [13, 16]: 43% |
| CCCC(=O)Nc1ncnc2c1ncn2[C@@H]1O[C@@H]2COP(=O)(O)O[C@H]2[C@H]1OC(=O)CCC [DBcAMP, N^6, O^2' -dibutyryl-cAMP, reference compound] | 0 | 0 | only arrests this tumor growth without producing regression | 2.60 | 9 | 2.15 | 100 | 500 | 1000 | 1000 | without appreciable change | did not affect the c-myc protein level | the RI and RII receptor levels remained unchanged; also recorded: did not appreciably affect the RI or RII receptor levels | growth inhibition ([1]; 50 micromolar): no growth inhibition; inhibition at 1000 µM ([2]; Homo sapiens, 1 mM): 15%; tumor response ([4]; Table 5): completely resistant; tumor response ([5]; Table 5): completely resistant; IC50 ([7]; read-out: Inhibition of Growth IC50, Molt-4 (symbol)): > 1000 µM; 50% growth inhibition ([7]; Molt-4): the 50% growth inhibition could not be obtained; inhibition at 500 µM [13]: 20%; activity at 500 µM [13, 16]: 80% |
